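Five concentrations, 48 hours, 96-well plates. GI50 is the concentration that inhibits growth by half.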 Active and inactive are the calls of the source. Rule as the data show it: active = GI50 up to about 1.1 µM and inactive = higher.
Key:
Assay in all cases: NCI anticancer screen, dose series, 48 h
ACHN = system: ACHN
UACC-62 = system: UACC-62
OVCAR-4 = system: OVCAR-4
MDA-N = system: MDA-N
OVCAR-3 = system: OVCAR-3
786-0 = system: 786-0
T47D = system: T47D
COLO 205 = system: COLO 205
NCI-H522 = system: NCI-H522
SK-MEL-5 = system: SK-MEL-5
OVCAR-5 = system: OVCAR-5
EKVX = system: EKVX
SF-539 = system: SF-539
SW-620 = system: SW-620
DU-145 = system: DU-145
IGROV-1 = system: IGROV-1
MDA-MB-231 = system: MDA-MB-231
Malme-3M = system: Malme-3M
LOX IMVI = system: LOX IMVI

Structure (SMILES) | GI50 (ACHN) | GI50 (UACC-62) | GI50 (OVCAR-4) | GI50 (MDA-N) | GI50 (OVCAR-3) | GI50 (786-0) | GI50 (T47D) | GI50 (COLO 205) | GI50 (NCI-H522) | GI50 (SK-MEL-5) | GI50 (OVCAR-5) | GI50 (EKVX) | GI50 (SF-539) | GI50 (SW-620) | GI50 (DU-145) | GI50 (IGROV-1) | GI50 (MDA-MB-231) | GI50 (Malme-3M) | GI50 (LOX IMVI)
Cn1c(=O)oc2nc(-c3ccccc3)cc(C(F)(F)F)c21 | > 100 µM (inactive) | > 100 µM (inactive) | 45.4 µM (inactive) | 3.23 µM (inactive) | 32.8 µM (inactive) | > 100 µM (inactive) | > 100 µM (inactive) | > 100 µM (inactive) | > 100 µM (inactive) | 50.7 µM (inactive) | > 100 µM (inactive) | > 100 µM (inactive) | 5.3 µM (inactive) | > 100 µM (inactive) | > 100 µM (inactive) | > 100 µM (inactive) | > 100 µM (inactive) |  | 
COC(=O)C1CC(C=[N+](C)C)=C(SC)N1C(=O)OCc1ccccc1 (centres undefined) | > 100 µM (inactive) | > 100 µM (inactive) | > 100 µM (inactive) | > 100 µM (inactive) | > 100 µM (inactive) | > 100 µM (inactive) | > 100 µM (inactive) | > 100 µM (inactive) | > 100 µM (inactive) | > 100 µM (inactive) | > 100 µM (inactive) | > 100 µM (inactive) |  | > 100 µM (inactive) | > 100 µM (inactive) | > 100 µM (inactive) | > 100 µM (inactive) | > 100 µM (inactive) | 
CC1OC1P(=O)(O)O (centres undefined) | > 100 µM (inactive) | > 100 µM (inactive) | > 100 µM (inactive) | > 100 µM (inactive) | > 100 µM (inactive) | > 100 µM (inactive) | > 100 µM (inactive) | > 100 µM (inactive) |  | > 100 µM (inactive) | 26.3 µM (inactive) | > 100 µM (inactive) |  | > 100 µM (inactive) | > 100 µM (inactive) | > 100 µM (inactive) | > 100 µM (inactive) |  | > 100 µM (inactive)
Cc1cc(N(CCC#N)CCC#N)ccc1C(/N=N\c1ccc([N+](=O)[O-])cc1)=N\NC(=O)c1cc(Cl)ccc1O | 27.8 µM (inactive) | 22.9 µM (inactive) | 26.5 µM (inactive) | 51.3 µM (inactive) | 14.2 µM (inactive) | 47.8 µM (inactive) | 25.9 µM (inactive) | 25 µM (inactive) | 9.35 µM (inactive) | 30.6 µM (inactive) | > 100 µM (inactive) | 24.3 µM (inactive) | 40.4 µM (inactive) |  | 46.3 µM (inactive) | 24.2 µM (inactive) | 30.3 µM (inactive) | 28.1 µM (inactive) | 
O=C1NC(=O)/C(=C/c2ccc(S(=O)(=O)N/N=C/c3ccc(Cl)cc3)cc2)N1 | > 100 µM (inactive) | > 100 µM (inactive) | > 100 µM (inactive) | > 100 µM (inactive) | 65.9 µM (inactive) | > 100 µM (inactive) | > 100 µM (inactive) | > 100 µM (inactive) |  | > 100 µM (inactive) | > 100 µM (inactive) | > 100 µM (inactive) |  | > 100 µM (inactive) | > 100 µM (inactive) | 92.9 µM (inactive) | > 100 µM (inactive) | > 100 µM (inactive) | > 100 µM (inactive)
CCOC(=O)c1cc(-c2ccc(Cl)cc2)c([N+](=O)[O-])n1C | > 10 µM (inactive) |  | > 10 µM (inactive) | > 10 µM (inactive) | > 10 µM (inactive) | > 10 µM (inactive) | 2.05 µM (inactive) |  | > 10 µM (inactive) |  | > 10 µM (inactive) | > 10 µM (inactive) | > 10 µM (inactive) |  | > 10 µM (inactive) | > 10 µM (inactive) | 0.08 µM (active) | > 10 µM (inactive) | 
Cc1ccc(C2=CC(=O)OC(C[P+](c3ccccc3)(c3ccccc3)c3ccccc3)(c3ccccc3)O2)cc1 (centres undefined) | 21.3 µM (inactive) | 14.8 µM (inactive) | 16.4 µM (inactive) | 14.7 µM (inactive) | 16.4 µM (inactive) | 19.3 µM (inactive) | 20.6 µM (inactive) | 14.3 µM (inactive) | 12 µM (inactive) | 15.4 µM (inactive) | 23.2 µM (inactive) | 15.3 µM (inactive) | 18.1 µM (inactive) |  | 16.5 µM (inactive) | 13.7 µM (inactive) | 28.5 µM (inactive) | 16.1 µM (inactive) | 
CC(C(O)c1ccccc1)N(C)/N=N/c1nc2c([nH]1)c(=O)n(C)c(=O)n2C (centres undefined) | 36.6 µM (inactive) | > 100 µM (inactive) | > 100 µM (inactive) | 44.8 µM (inactive) | > 100 µM (inactive) | 74.1 µM (inactive) | 85.5 µM (inactive) | 41.4 µM (inactive) |  | 66.8 µM (inactive) | > 100 µM (inactive) | 88.1 µM (inactive) |  | > 100 µM (inactive) | 99.3 µM (inactive) | 35.2 µM (inactive) | 92.3 µM (inactive) | > 100 µM (inactive) | 
CC(CO)C1C[C@H](O)[C@@]2(C)CC(=O)C=C(CO)[C@@H]2C1 (some centres undefined) | > 100 µM (inactive) | > 100 µM (inactive) | > 100 µM (inactive) | > 100 µM (inactive) | > 100 µM (inactive) | > 100 µM (inactive) | > 100 µM (inactive) | > 100 µM (inactive) |  | > 100 µM (inactive) | > 100 µM (inactive) | > 100 µM (inactive) | > 100 µM (inactive) | > 100 µM (inactive) | > 100 µM (inactive) | > 100 µM (inactive) | > 100 µM (inactive) |  | > 100 µM (inactive)
Cc1cc2c(cc1C(=O)c1ccc(N)cc1)OCO2 | > 100 µM (inactive) | 31 µM (inactive) |  | 12.4 µM (inactive) | 0.347 µM (active) | 34.6 µM (inactive) | 28 µM (inactive) | 16 µM (inactive) | 19.1 µM (inactive) | 20 µM (inactive) | 27 µM (inactive) | 31 µM (inactive) | 27.2 µM (inactive) | 34.8 µM (inactive) | 55 µM (inactive) | 33.5 µM (inactive) | 34.1 µM (inactive) | 33.8 µM (inactive) | 
Cc1c(O)c(OC2OC(CO)C(O)C(O)C2O)cc2c1CC[C@@H]1C2(C)C(=O)C[C@]2(C)[C@@H]([C@@](C)(O)C(=O)CCC(C)(C)O)[C@H](O)C[C@@]12C (some centres undefined) | > 100 µM (inactive) | > 100 µM (inactive) | > 100 µM (inactive) | > 100 µM (inactive) | > 100 µM (inactive) | > 100 µM (inactive) | > 100 µM (inactive) | > 100 µM (inactive) | > 100 µM (inactive) | > 100 µM (inactive) | > 100 µM (inactive) | > 100 µM (inactive) | > 100 µM (inactive) | > 100 µM (inactive) | > 100 µM (inactive) | > 100 µM (inactive) | > 100 µM (inactive) | > 100 µM (inactive) | 
C=CCCCC1CCCNC1=O (centres undefined) | > 100 µM (inactive) | > 100 µM (inactive) | > 100 µM (inactive) | 58.5 µM (inactive) | > 100 µM (inactive) | > 100 µM (inactive) | > 100 µM (inactive) |  | > 100 µM (inactive) | > 100 µM (inactive) | > 100 µM (inactive) | > 100 µM (inactive) | > 100 µM (inactive) | > 100 µM (inactive) | > 100 µM (inactive) | > 100 µM (inactive) | > 100 µM (inactive) |  | 

From ChEMBL document CHEMBL1201862, “PubChem BioAssay data set” (2004)
